The values below come from patent US9303076B2, “Cell-penetrating peptides and uses thereof” (Hoffmann-La Roche Inc., priority 2010, dated 2016).

For one data set, the system named is human Aha1 mRNA. Nature of the data set: siRNA transfection screening (siAha1 vs siGL3 control, bDNA assay of Aha1/GAPDH mRNA). The data set is classed as cell-based. As to the method: For the quantification of cellular mRNA levels bDNA (branched DNA) assays were performed which enable the detection of individual mRNA levels. To this end, a defined number of the cells to be analyzed was seeded into 96-well plates and allowed to attach over night. On the next day, the cells were transfected with siRNA.
After further 24 hours, the mRNA species were quantified using the QuantiGene Plex 2.0 assay kit according to the manufacturers instructions (Affymetrix Inc., Santa Clara, Calif., USA). In brief, cell lysates were transferred to a capture plate in the presence of a gene-specific probe set and incubated at 53° C. over night. After washing, the wells were sequentially incubated at 53° C. with an amplifier agent and an alkaline phosphatase (AP)-linked label probe with a washing step in between. Subsequently, the luminescent AP substrate dioxitane was added and incubated for 30 min at 53° C. Luminescence was assayed using an InfiniteF200 luminescence reader (Tecan Austria GmbH, Groding, Austria).
In order to analyze the potential CPPs for their ability to transfect siRNA into mammalian cells an increasing peptide concentration (from 1 μM to 20 μM) was employed along with a constant siRNA concentration (100 nM). This range of peptide concentrations was used as it had been shown that positively charged peptides such as TAT are internalized into cells in ranges up to 10 μM and remain in intracellular membrane compartments without significant egress into the cytosol (Duchardt, F. et al. (2007) Traffic 8, 848-866). […] A concentration of 10 nM siRNA is in the saturation range as determined in control experiments using the DharmaFECT transfection reagent (Dharmacon, Inc., Lafayette, Colo., USA; data not shown).
The siRNA oligonucleotides employed were directed against human Aha1 mRNA (Panaretou, B. et al. (2002) Mol. Cell 10, 1307-1318) or against luciferase mRNA as a control.
Complexes of siRNA and the respective peptides were formed in OptiMEM medium and incubated for 15 minutes at room temperature. The cells were incubated in the presence of the complexes for three hours in OptiMEM. After washing, the cells were incubated for further 21 or 45 hours in normal growth medium. Thereafter, the levels of Aha1 mRNA and a reference mRNA (i.e. GAPDH mRNA) were measured by means of a bDNA assay. These assays were performed with cells that were transfected with siAHA1 and with a control siRNA (siGL3, luciferase), respectively.
As a measure for specific RNAi, the reduction of Aha1 mRNA levels relative to GAPDH mRNA levels was compared in siAHA1-transfected cells and siGL3-transfected cells. Specific siRNA mediated transfection causes a reduction in Aha1/GAPDH mRNA values in siAhA1-compared to siGL3-transfected cells. FIG. 3 depicts the screening readout of these assays: the Aha1/GAPDH mRNA values of non-transfected control cells were set to 100% (for each assay), and the Aha1/GAPDH mRNA values of siAha1- or siGL3-transfected cells were expressed relative to that. For this normalized data set, the differences between the respective Aha1/GAPDH mRNA levels of siAha1- and siGL3-transfected cells were determined. Specific peptides caused a significant reduction in siAha1 transfection without reducing siGL3 transfections, which results in positive difference values. The more pronounced these values are, the more specific RNAi is observed (cf. FIG. 3).

The test system of data set [1] is MCF7 cells.
Protocol: MCF7 cells were seeded at a density of 15.000 cells per well in 96 well plates. The cells were incubated for 24 hours at 37° C., 5% CO2 and 85% humidity in RPMI 1640 medium supplemented with 10% FCS (fetal calf serum) and L-glutamine. For functional assays, the cells were washed in OptiMEM medium and RPMI 1640 was replaced with OptiMEM (all reagents were purchased from Invitrogen Corporation, Carlsbad, Calif., USA). Complexes of siRNAs and peptides were formed by incubation of 100 nM siRNA with the indicated peptide concentrations in OptiMEM for 30 minutes at room temperature. The complexes were added to the cells and incubated for 3 hours. Subsequently, OptiMEM was replaced with normal RPMI 1640 growth medium. The cells were incubated for further 21 hours for generating bDNA lysates, and for further 45 hours for performing CellTiter-Glo or CytoTox-Glo assays (cf. below).
In order to measure the number of living cells the CellTiter-Glo Luminescent Cell Viability Assay (Promega Corporation, Madison, Wis., USA) was used according to the protocol of the manufacturer. The cells were incubated for 48 hours in the presence of peptides and siRNAs. Subsequently, the cells are lysed, and a luminescent signal proportional to the amount of ATP present is generated which, in turn, is proportional to the number of living cells present. Luminescence was analyzed in an InfiniteF200 luminescence reader.
Based on this observation, GAPDH mRNA levels were used as a general readout for toxicity: an average measurement of 100% GAPDH mRNA relative to the medium control was considered as non-toxic, values between 99% and 70% as moderate toxic, and values of less than 70% as toxic (cf. FIG. 3).
Similarly, peptides resulting in GAPDH mRNA values >70% were classified as “nontoxic”, whereas peptides that caused a reduction of GAPDH mRNA to lesser values were termed “toxic”.
The next data set relates to human Eg5 mRNA. Briefly: peptide-mediated transfection of siRNA targeting Eg5 (mRNA level, CytoTox-Glo apoptosis). The format is cell-based. Here is the method:
The siRNA sequence specificity of NRTN was investigated via analysis of the peptide's ability to transfect a siRNA duplex targeting human Eg5 mRNA. The Eg5 knockdown dependent induction of apoptosis was determined by performing a CytoTox-Glo cytotoxicity assay (Promega Inc.). The mRNA values obtained at 1 μM were set to 100% to show dose dependent effects. Induction of apoptosis is expressed as percent of medium control. Aha1 siRNA is shown as black filled squares; luciferase siRNA is shown as non-filled circles.
Then, the cells were treated with a luminogenic peptide substrate in order to measure dead-cell protease activity, which is released from cells that have lost membrane integrity. […] The luminescence of this assay therefore represents dead cells. The 96 well plates were then analyzed in an InfiniteF200 luminescence reader.
An effective reduction of cellular Eg5 mRNA levels was found at concentrations of <10 μM. […] It is known that effective depletion of Eg5 mRNA causes mitotic arrest resulting in the onset of apoptosis (Blangy, A. et al. (1995), supra). […] Transfections with control siRNA under identical conditions were not cytotoxic either, thus confirming that the apoptotic phenotype was caused by Eg5 mRNA depletion.

Data set [2] deals with MCF7 cells. Briefly: FACS analysis of internalization of FITC-labeled peptides. The format is cell-based, human. As to the method:
For FACS analysis, MCF7 cells (ATCC number HTB-22) were detached by 15 min incubation in accutase (an enzyme solution having proteolytic and collagenolytic activities; commercially available from various suppliers). After washing in FACS buffer (PBS containing 5% FCS), the cells were seeded in a 96 well, rounded bottom multi-well plate (Cat. No. 3799, Corning Inc., Corning, N.Y. USA) in a final density of 3×10^5 cells/ml and used immediately. The cells were incubated in the respective presence of 1 μM, 5 μM and 10 μM FITC-labeled peptides in OptiMEM medium for 3 hours at 37° C. Afterwards, the cells were washed in FACS buffer and incubated in proteinase K (0.02 mg/ml) containing buffer for 30 minutes at 37° C. The cells were washed twice and analyzed with the FACSCanto II (BD Biosciences; San Jose, Calif., USA) using the FITC channel.
For determining the internalization behavior of the CPPs identified in the screening procedures FITC-labeled derivates of said peptides (at 1 μM, 5 μM, and 10 μM, respectively) were analyzed by means of FACS. The following peptides were used: NRTN as a transfecting peptide, WNT16 as a non-transfecting peptide, FALL as a toxic peptide and TAT as a reference (positive control) (cf. FIG. 12). MCF7 cells were incubated in the presence of the fluorescent peptide derivatives for 3 hours at 37° C. in OptiMEM. Subsequently, the cells were treated with proteinase K for 30 minutes at 37° C. to remove surface bound peptides, and thus to ensure the monitoring only of internalized peptides. The cells were then washed in PBS and analyzed by FACS.

Entries after “also recorded” stand apart in the source; their conditions may differ.

Turning to “GAAEAAARVYDLGLRRLRQRRRLRRERVRA (NRTN peptide sequence; listed as Homo sapiens) [peptide derived from human neurturin]”, in the data set with human Aha1 mRNA (MCF7 cells, 100 nM siRNA, peptide 1 μM to 20 μM), the “siRNA transfection activity (specific Aha1 mRNA reduction relative to GAPDH mRNA)” value is recorded as “even more effective reduction of Aha1 mRNA levels”. For the same sequence, the “transfection efficacy compared with TAT / control peptides” value in the data set with human Aha1 mRNA (NRTN: at lower non-toxic concentrations) is given as “higher than that of all (positive) control peptides analyzed; also recorded: efficacy even higher than TAT”. Further, the “peptide concentration at which cell growth/viability was affected” value in the data set on MCF7 cells [1] is recorded as “above 10 μM”. For the same sequence, the “apoptotic phenotype upon siEg5 transfection” value in the data set on human Eg5 mRNA (CytoTox-Glo) is “an apoptotic phenotype was observed”. In addition, the “peptide concentration giving effective reduction of cellular Eg5 mRNA levels” value in the data set on human Eg5 mRNA (siRNA targeting Eg5) is less than 10 µM. Moreover, the “internalization into cells (FACS, FITC channel)” value in the data set with MCF7 cells [2] (FITC-labeled peptide 1, 5, 10 μM, 3 hours at 37° C., proteinase K treated) is recorded as “internalized into MCF7 cells”. Also, the “change of internalization with concentration” value in the data set on MCF7 cells [2] (increasing the concentration from 5 μM to 10 μM) is on record as “strong increase in internalization”.
